Experimental data: patent US20240116985A1, “STAPLED PEPTIDES AND METHODS THEREOF” (priority 2020, published 2024)
In brackets after ≈: the same amount, converted by molar mass. Read-outs that look alike come from different tables or passages of the source.

Key:
[1] = CHI Log D procedure; format: physicochemical; conditions: for CHI Log D: pH 7.4; for chromatographic logD: pH 7.4, CHI Log D
[2] = Solubility in PBS; format: physicochemical
Summary of the method: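 Steps: ultracentrifuge the peptide PBS solution, inject the supernatant on HPLC, inject a 50 μM peptide DMSO solution as reference, then calculate solubility as area ratio (PBS/DMSO) × 50 uM.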

[3] = molecular target: T1, full-length beta-Catenin (Uniprot ID P35222) (Homo sapiens, UniProt P35222); experiment: Fluorescence polarization IC50 (beta-catenin / 5FAM-TCF4 10-53 competition); format: binding
T1 construct: 10 nM full-length beta-Catenin (Uniprot ID P35222)
T1 sequence (P35222 1-781): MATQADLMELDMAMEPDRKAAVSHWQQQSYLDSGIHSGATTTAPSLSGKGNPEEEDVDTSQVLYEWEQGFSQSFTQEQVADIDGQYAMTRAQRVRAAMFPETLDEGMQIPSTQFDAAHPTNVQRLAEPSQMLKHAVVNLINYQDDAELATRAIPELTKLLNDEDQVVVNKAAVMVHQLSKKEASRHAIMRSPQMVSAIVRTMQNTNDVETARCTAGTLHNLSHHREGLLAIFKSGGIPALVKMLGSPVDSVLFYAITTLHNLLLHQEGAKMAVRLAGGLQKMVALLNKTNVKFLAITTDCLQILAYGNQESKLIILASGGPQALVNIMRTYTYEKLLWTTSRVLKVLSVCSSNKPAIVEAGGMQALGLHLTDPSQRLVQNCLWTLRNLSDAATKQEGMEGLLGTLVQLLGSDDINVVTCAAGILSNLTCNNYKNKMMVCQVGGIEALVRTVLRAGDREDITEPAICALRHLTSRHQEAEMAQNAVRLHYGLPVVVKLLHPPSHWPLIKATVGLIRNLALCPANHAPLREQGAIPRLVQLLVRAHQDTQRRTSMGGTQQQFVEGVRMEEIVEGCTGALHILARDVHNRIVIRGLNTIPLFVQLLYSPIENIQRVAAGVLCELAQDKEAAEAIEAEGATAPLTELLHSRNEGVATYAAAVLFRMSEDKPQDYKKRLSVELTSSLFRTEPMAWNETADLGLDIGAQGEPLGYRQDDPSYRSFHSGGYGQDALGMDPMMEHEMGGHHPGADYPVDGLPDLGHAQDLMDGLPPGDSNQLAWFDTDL

[4] = fluorescence polarization, beta-catenin, read-out: FP EC50

SMILES | CHI Log D [1] | Solubility [2] | IC50 [3, 4] | IC50 ([3]; read-out: beta-Catenin FP IC50) | chromatographic logD [1]
CC(=O)N1CCC[C@]12CC=CCCCC1(CCCC=CCCCOC(=O)N3CC[C@@](C(=O)N[C@@H](Cc4ccccc4Cl)C(=O)N[C@@H](Cc4csc5ccccc45)C(=O)N[C@H](C(N)=O)[C@@H](C)O)(C3)NC(=O)[C@H](CC(C)C)NC(=O)[C@H](Cc3ccccc3)NC(=O)[C@H](C)NC(=O)[C@H](C)NC(=O)[C@H](CCC(=O)O)NC(=O)[C@H](CC(=O)O)NC1=O)NC(=O)[C@H](CC(C)(C)C)NC(=O)[C@H](CC(=O)O)NC2=O (stereo partly drawn) [I-1071, Ac-PL3-Asp-Npg-B5-Asp-Glu-Ala-Ala-Phe-Leu-PyrS2-2C1F-BztA-Thr-NH2] | 2.218 | 33 µM (≈ 63.8 µg/mL) | 1260 nM | 1260 nM | –
CC(=O)N1CCC[C@]12CC=CCCCC1(CCCC=CCCCOC(=O)N3CC[C@@](C(=O)N[C@@H](Cc4ccccc4)C(=O)N[C@@H](Cc4csc5ccccc45)C(=O)N[C@@H](CCC(N)=O)C(N)=O)(C3)NC(=O)[C@H](CC(C)C)NC(=O)[C@H](Cc3ccccc3)NC(=O)[C@H](C)NC(=O)[C@H](C)NC(=O)[C@H](CCC(=O)O)NC(=O)[C@H](CC(=O)O)NC1=O)NC(=O)[C@H](CC(C)(C)C)NC(=O)[C@H](CC(=O)O)NC2=O (stereo partly drawn) [I-1073, Ac-PL3-Asp-Npg-B5-Asp-Glu-Ala-Ala-Phe-Leu-PyrS2-Phe-BztA-Gln-NH2] | 1.831 | 31 µM (≈ 59.7 µg/mL) | 409 nM | 409 nM | –
CC(=O)N1CCC[C@]12CC=CCCCC1(CCCC=CCCCOC(=O)N3CC[C@@](C(=O)N[C@@H](Cc4ccccc4)C(=O)N[C@@H](Cc4csc5ccccc45)C(=O)N[C@@H](CCC(N)=O)C(N)=O)(C3)NC(=O)[C@H](CC(C)C)NC(=O)[C@H](Cc3ccccc3)NC(=O)[C@H](C)NC(=O)[C@H](C)NC(=O)[C@H](CCC(=O)O)NC(=O)[C@H](CC(=O)O)NC1=O)NC(=O)[C@H](CC(C)(C)C)NC(=O)[C@H](CC(=O)O)NC2=O (stereo partly drawn) [I-1074, Ac-PL3-Asp-Npg-B5-Asp-Glu-Ala-Ala-Phe-Leu-PyrS2-Phe-BztA-Gln-NH2] | 1.92 | 34 µM (≈ 65.5 µg/mL) | 498 nM | 498 nM | –
CC(=O)N1CCC[C@]12CC=CCCCC1(CCCC=CCCCOC(=O)N3CC[C@@](C(=O)N[C@@H](Cc4ccccc4Cl)C(=O)N[C@@H](Cc4csc5ccccc45)C(=O)N[C@@H](CCC(N)=O)C(N)=O)(C3)NC(=O)[C@H](CC(C)C)NC(=O)[C@H](Cc3ccccc3)NC(=O)[C@H](C)NC(=O)[C@H](C)NC(=O)[C@H](CC(=O)O)NC(=O)[C@H](CC(=O)O)NC1=O)NC(=O)[C@H](CC1CCCCC1)NC(=O)[C@H](CC(=O)O)NC2=O (stereo partly drawn) [I-1075, Ac-PL3-Asp-Cha-B5-Asp-Asp-Ala-Ala-Phe-Leu-PyrS2-2C1F-BztA-Gln-NH2] | 1.971 | 17 µM (≈ 33.5 µg/mL) | 567 nM | 567 nM | –
CC(=O)N1CCC[C@]12CC=CCCCC1(CCCC=CCCCOC(=O)N3CC[C@@](C(=O)N[C@@H](Cc4ccccc4Cl)C(=O)N[C@@H](Cc4csc5ccccc45)C(=O)N[C@@H](CCC(N)=O)C(N)=O)(C3)NC(=O)[C@H](CC(C)C)NC(=O)[C@H](Cc3ccccc3)NC(=O)[C@H](C)NC(=O)[C@H](C)NC(=O)[C@H](CCC(=O)O)NC(=O)[C@H](CC(=O)O)NC1=O)NC(=O)[C@H](CC1CCCCC1)NC(=O)[C@H](CC(=O)O)NC2=O (stereo partly drawn) [I-1077, Ac-PL3-Asp-Cha-B5-Asp-Glu-Ala-Ala-Phe-Leu-PyrS2-2C1F-BztA-Gln-NH2] | 2.06 | 10 µM (≈ 19.9 µg/mL) | 324 nM | 324 nM | –
CC(=O)N1CCC[C@]12CC=CCCCC1(CCCC=CCCCOC(=O)N3CC[C@@](C(=O)N[C@@H](Cc4ccccc4Cl)C(=O)N[C@@H](Cc4csc5ccccc45)C(=O)N[C@@H](CCC(N)=O)C(N)=O)(C3)NC(=O)[C@H](CC(C)C)NC(=O)[C@H](Cc3ccccc3)NC(=O)[C@H](C)NC(=O)[C@H](C)NC(=O)[C@H](CCC(=O)O)NC(=O)[C@H](CC(=O)O)NC1=O)NC(=O)[C@H](CC1CCCCC1)NC(=O)[C@H](CC(=O)O)NC2=O (stereo partly drawn) [I-1078, Ac-PL3-Asp-Cha-B5-Asp-Glu-Ala-Ala-Phe-Leu-PyrS2-2C1F-BztA-Gln-NH2] | 2.162 | 27 µM (≈ 53.6 µg/mL) | 352 nM | 352 nM | –
CC(=O)N1CCC[C@]12CC=CCCCC1(CCCC=CCCCOC(=O)N3CC[C@@](C(=O)N[C@@H](Cc4ccccc4Cl)C(=O)N[C@@H](Cc4csc5ccccc45)C(=O)N[C@@H](CCC(N)=O)C(=O)NCCCCCCN=[N+]=[N-])(C3)NC(=O)[C@H](Cc3ccccc3)NC(=O)[C@H](Cc3ccccc3)NC(=O)[C@H](C)NC(=O)[C@H](C)NC(=O)[C@H](CN(CC(=O)O)CC(F)(F)F)NC(=O)[C@H](CC(=O)O)NC1=O)NC(=O)[C@H](CC(C)(C)C)NC(=O)[C@H](CC(=O)O)NC2=O (stereo partly drawn) [I-1085, Ac-PL3-Asp-Npg-B5-Asp-TfeGA-Ala-Ala-Phe-Phe-PyrS2-2C1F-BztA-Gln-6AzHex] | – | 10 µM (≈ 22.2 µg/mL) | 390 nM | – | 3.7
CC(=O)N1CCC[C@]12CC=CCCCC1(CCCC=CCCCCCC[C@@](C)(C(=O)N[C@@H](Cc3ccccc3Cl)C(=O)N[C@@H](Cc3csc4ccccc34)C(=O)N[C@@H](C(N)=O)[C@H](C)O)NC(=O)[C@H]([C@@H](C)O)NC(=O)[C@H](Cc3ccccc3)NC(=O)[C@H](C)NC(=O)[C@H](C)NC(=O)[C@H](CCC(=O)O)NC(=O)[C@H](CC(=O)O)NC1=O)NC(=O)[C@H](CC(C)(C)C)NC(=O)[C@H](CC(=O)O)NC2=O (stereo partly drawn) [I-1093, Ac-PL3-Asp-Npg-B5-Asp-Glu-Ala-Ala-Phe-Thr-S8-2C1F-BztA-dThr-NH2] | 3.22 | 48 µM (≈ 90.1 µg/mL) | 43 nM | 43 nM | –
CC(=O)N1CCC[C@]12CC=CCCCC1(CCCC=CCCCCCC[C@@](C)(C(=O)N[C@@H](Cc3ccccc3Cl)C(=O)N[C@@H](Cc3csc4ccccc34)C(=O)N[C@@H](C(N)=O)[C@H](C)O)NC(=O)[C@H](CC(C)C)NC(=O)[C@H](Cc3ccccc3)NC(=O)[C@H](C)NC(=O)[C@H](C)NC(=O)[C@H](CCC(=O)O)NC(=O)[C@H](CC(=O)O)NC1=O)NC(=O)[C@H](CC(C)(C)C)NC(=O)[C@H](CC(=O)O)NC2=O (stereo partly drawn) [I-1098, Ac-PL3-Asp-Npg-B5-Asp-Glu-Ala-Ala-Phe-Leu-S8-2ClF-BztA-dThr-NH2] | – | 10 µM (≈ 18.9 µg/mL) | – | 100 nM | 3.54
CC(=O)N1CCC[C@]12CC=CCCCC1(CCCC=CCCCOC(=O)N3CC[C@@](C(=O)N[C@@H](Cc4ccccc4F)C(=O)N[C@@H](Cc4csc5ccccc45)C(=O)N[C@@H](CO)C(N)=O)(C3)NC(=O)[C@H](CO)NC(=O)[C@H](Cc3ccccc3)NC(=O)[C@H](C)NC(=O)[C@H](C)NC(=O)[C@H](CC(=O)O)NC(=O)[C@H](CC(=O)O)NC1=O)NC(=O)[C@H](CC1CCCCC1)NC(=O)[C@H](CC(=O)O)NC2=O (stereo partly drawn) [I-1102, Ac-PL3-Asp-Cha-B5-Asp-Asp-Ala-Ala-Phe-Ser-PyrS2-2FF-BztA-Ser-NH2] | – | 10 µM (≈ 18.9 µg/mL) | – | 16 nM | 2.39
CC(=O)N1CCC[C@]12CC=CCCCC1(CCCC=CCCCOC(=O)N3CC[C@@](C(=O)N[C@@H](Cc4ccccc4Cl)C(=O)N[C@@H](Cc4csc5ccccc45)C(=O)N[C@@H](CO)C(N)=O)(C3)NC(=O)[C@H](CC(C)C)NC(=O)[C@H](Cc3ccccc3)NC(=O)[C@H](C)NC(=O)[C@H](C)NC(=O)[C@H](CC(=O)O)NC(=O)[C@H](CC(=O)O)NC1=O)NC(=O)[C@H](CC1CCCCC1)NC(=O)[C@H](CC(=O)O)NC2=O (stereo partly drawn) [I-1112, Ac-PL3-Asp-Cha-B5-Asp-Asp-Ala-Ala-Phe-Leu-PyrS2-2C1F-BztA-Ser-NH2] | – | 10 µM (≈ 19.3 µg/mL) | – | 40 nM | 2.72
CC(=O)N1CCC[C@]12CC=CCCCC1(CCCC=CCCCOC(=O)N3CC[C@@](C(=O)N[C@@H](Cc4ccccc4Cl)C(=O)N[C@@H](Cc4csc5ccccc45)C(=O)N[C@@H](CO)C(N)=O)(C3)NC(=O)[C@H](CC3CCCCC3)NC(=O)[C@H](Cc3ccccc3)NC(=O)[C@H](C)NC(=O)[C@H](C)NC(=O)[C@H](CC(=O)O)NC(=O)[C@H](CC(=O)O)NC1=O)NC(=O)[C@H](CC1CCCCC1)NC(=O)[C@H](CC(=O)O)NC2=O (stereo partly drawn) [I-1113, Ac-PL3-Asp-Cha-B5-Asp-Asp-Ala-Ala-Phe-Cha-PyrS2-2C1F-BztA-Ser-NH2] | – | 10 µM (≈ 19.7 µg/mL) | – | 64 nM | 2.99
